Reference: patent publication US8912146B2, “Derivatives of APF and methods of use” (University of Maryland, Baltimore, priority 2008, dated 2014)
Where two headings read alike, the source gives them in different places.

Tests used:
[1] = system: primary normal human bladder epithelial cells; assay: 3H-thymidine incorporation (antiproliferative activity) in primary normal bladder epithelial cells; type: cell-based
Experimental: Cell Culture. Cystoscopy was performed under general anesthesia, and 4-mm^2 pieces of transitional epithelium with submucosal bladder tissue were obtained for the growth of primary bladder epithelial cells, as previously described (Keay et al., 1996; 2004). Primary normal bladder epithelial cells were propagated in DMEM-F12 (Media-Tech, Herndon Va.) with 10% heat-inactivated fetal bovine serum (FBS), 1% antibiotic/antimycotic solution, 1% L-glutamine, 0.25 units/mL insulin (all from Sigma, St. Louis, Mo.), and 5 ng/mL hEGF (R&D Systems, Minneapolis, Minn.) at 37° C. in a 5% CO2 atmosphere and characterized by binding of AE-1/AE-3 pancytokeratin antibodies (Signet, Dedham, Mass.).
^3H-Thymidine Incorporation. Cell proliferation was measured by ^3H-thymidine incorporation into explanted normal human bladder epithelial cells, plating 1.5×10^4 cells/well onto a 96 well cell culture plate (VWR 29442-054), in 150 ul/well MEM containing 10% heat inactivated FBS, 1% antibiotic/antimycotic solution, and 1% L-glutamine (all from Sigma), resulting in a doubling time of 48-72 hours, as previously described (Keay et al., 1996; 2004). Each purified lyophilized synthetic APF congener was resuspended in acetonitrile/distilled water (1:1), and applied to the cells in serum-free MEM (containing only L-glutamine and antibiotics/antimycotics); cell controls received acetonitrile/distilled water diluted in serum-free MEM alone. Cells were then incubated at 37° C. in a 5% CO2 atmosphere for 48 hours. The cell contents harvested and methanol-fixed onto glass fiber filter paper, and the amount of radioactivity incorporated determined. Significant inhibition of ^3H-thymidine incorporation was defined as a mean decrease in counts per minute of greater than 2 standard deviations from the mean of control cells for each plate. Inhibition of cell proliferation was determined from a semi-log plot of dose-response for each APF derivative; IC50 was determined as the concentration of each derivative that caused a mean 50% inhibition of thymidine incorporation as compared to the mean of untreated cell controls.
Statistical Analysis. The thymidine incorporation (APF biological activity) assay was performed in triplicate on at least two separate runs, with 1 run simultaneously in triplicate on the same plate. The significance of the difference between mean values for each congener vs. mean values for compound 1 was determined by an analysis of variance.

[2] = system: ZO-1, occludin, claudin 1, 4, 8, 12 mRNA in IC/PBS cells; assay: qRT-PCR of tight junction protein mRNA in IC/PBS cells; type: cell-based, human; settings: 16 or 30 day treatment
Experimental: Total RNA was extracted from IC/PBS and normal control epithelial cell explants using the RNEasy Plus Mini Kit (Qiagen) according to the manufacturer's protocol. Quantitative real time RT-PCR for tight junction gene expression was performed using Quantitect Primers (Qiagen), SYBR Green RT-PCR kit reagents (Qiagen), and a Roche 480 Light-Cycler. Samples were tested in triplicate runs, and specific mRNA levels quantified and compared to mRNA levels for β-actin using LightCycler 480 real-time PCR analysis software (version 1.5).
For the permeability assay, the percentage of total counts in the basal medium was determined in four experiments (using different IC/PBS cell donors), and expressed as mean±standard deviation. Crossover point analysis was performed for qRT-PCR data, and expression of each gene was quantified relative to β-actin; this value was expressed as mean±standard error of the mean for duplicate runs performed on two separate occasions. ^3H-thymidine incorporation was determined in triplicate on two separate occasions, and the CPM expressed as mean±standard deviation.

[3] = system: bladder epithelial cells from IC/PBS patients; assay: Stimulation of IC/PBS cell proliferation (3H-thymidine incorporation); type: cell-based, human
Experimental: (§1) IC/PBS cells were incubated with varying concentrations of two derivatives shown to inhibit APF activity in normal bladder cells—GalGalNAc-TV(D-pipecolic acid) AAVVVA (SEQ ID NO:14) and GalGalNAc-TV (D-proline)AAVVVA (SEQ ID NO:27). Cell proliferation was determined by ^3H-thymidine incorporation; gene expression by quantitative RT-PCR; specific protein expression by Western blot analysis; tight junction formation by confocal immunofluorescence microscopy; and paracellular permeability by ^14C-mannitol and ^3H-inulin flux between confluent cells on Transwell plates. Significance of the difference in mean values between groups was determined by an analysis of variance for each assay.
as §1, with “cells -GalGalNAc-TV-(D-pipecolic acid)-AAVVVA” for “cells—GalGalNAc-TV(D-pipecolic acid) AAVVVA”, “NO:7)” for “NO:14)”, “GalGalNAc-TV-(D-proline)-AAVVVA” for “GalGalNAc-TV (D-proline)AAVVVA”, “RT-PCR;” for “RT-PCR; specific protein expression by Western blot analysis;”
IC/PBS cells produce APF and as a result have a profound decrease in cell proliferation. […]
Cystoscopy was performed under general anesthesia, and 4-mm^2 pieces of transitional epithelium with submucosal bladder tissue were obtained from IC/PBS patients and controls for the growth of primary bladder epithelial cells, as previously described (Keay et al., 2000; Keay et al., 2001; Keay et al., 2004; Keay et al., 2003). […]
Cell proliferation was measured by ^3H-thymidine incorporation into explanted normal human bladder epithelial cells, as previously described (Keay et al., 2000; Keay et al., 2001; Keay et al., 2004; Keay et al., 2003; Saitoh et al., 2001). […]

SMILES: CC(=O)NC1C(O[C@@H]2OC(CO)[C@H](O)C(O)C2O)[C@@H](O)C(CO)O[C@@H]1OC(C)[C@H](N)C(=O)NC(C(=O)N1CCCC1C(=O)NC(C)C(=O)N[C@@H](C)C(=O)NC(C(=O)N[C@H](C(=O)NC(C(=O)N[C@@H](C)C(=O)O)C(C)C)C(C)C)C(C)C)C(C)C (stereo in doubt) [Derivative 8, GalGalNAc-TV(D-proline)AAVVVA]
- antiproliferative activity compared with as-APF (1), in words [1]: completely abolished activity
- antiproliferative activity compared with as-APF (1), in words ([1]; listed as D-proline APF): Neither D-proline APF nor D-pipecolic acid APF had any intrinsic antiproliferative activity
- % of activity ([1]; relative to 1 (as-APF) run on the same plate, from IC50, inactive = no significant activity at <25 μM): inactive
- tight junction protein (ZO-1, occludin, claudins) mRNA expression in IC/PBS cells ([2]; listed as D-proline): significantly (p<0.05) stimulate mRNA expression
- tight junction protein (ZO-1, occludin, claudins) mRNA expression in IC/PBS cells ([2]; listed as D-proline APF): stimulation of tight junction protein expression
- tight junction protein (ZO-1, occludin, claudins) mRNA expression in IC/PBS cells ([2]; listed as GalGalNAc-TV-(D-proline)-AAVVVA): significantly increased
- stimulation of IC/PBS cell proliferation ([3]; 1 nM twice weekly, by Day 16 (FIG. 55)): significantly (p<0.05) stimulated IC/PBS cell proliferation
- stimulation of IC cell proliferation ([3]; 0.25 μM of each agent, 9, 16, 23, 30 day treatment (FIG. 41)): Optimal stimulation of IC cell proliferation
- IC cell proliferation vs untreated controls ([3]; 16 and 30 days of treatment (FIG. 48)): significantly stimulated
